Experimental data as given in patent US20230158015A1, “DRUG COMBINATIONS FOR INHIBITING INFLAMMATION AND SRC KINASE ACTIVATION FOLLOWING INVASIVE SURGICAL PROCEDURES” (SINTETICA S.A., priority 2020, published 2023).
Read-outs that look alike come from different tables or passages of the source.

Key:
[1] = system: Src phosphorylation at tyrosine 419; conditions: cited from earlier work
p-Src / total Src = assay type: cell-based, mouse
Protocol: (§1) On day 1, mouse KPC-105 cells were cultured until 300,000 cells per well in a 6 well plate were obtained. On day 2, the cells were treated with 0, 0.5, 1,5, 10, 15, 30, 50 and 100 µM lidocaine for 30 minutes. Plates were then collected and washed with phosphate buffered saline and stored at -80° C. Cells were subsequently lysed with 100 µl of radioimmunoprecipitation assay buffer with protease and phosphatase buffers.
(§2) Protein estimation was done using a Bradford assay under the following conditions: • A Western Blot was stripped with 6 M guanidine hydrochloride after p-Src protein blocking to probe with total Src protein. • 10% SDS-PAGE 10 well Blocking: 5% bovine serum albumin for p-Src blot. • P-Src-Tyr416 (GeneTex GTX81151) Rb: 1:1000 in 5% bovine serum albumin, Overnight. • Total Src (Cell Signaling Technology 2108S ) Rb mAb 1:1000 overnight in 5% milk. • GAPDH (Invitrogen# AM4300) : 1:5000 in 5% milk overnight. • Wash: 4x for 5 minutes each with 1x TBST. • Developed using 50% femto for the p-Src protein and homemade ECL substrate for total Src and GAPDH protein.
Example 4 evaluated endogenous Src and p-Src in 10 µM lidocaine treated mouse KPC-105 cells at different time points.
Example 5 evaluated endogenous Src and p-Src in mouse KPC-105 cells treated with 10 10 µM lidocaine for different time points, and increasing doses of methylnaltrexone after one hour of incubation. Western Blot banding patterns were generated using 15 µg /lane (NP40 lysates) 10% SDS PAGE over a 6-hour duration (lidocaine) and a 1-hour duration (methylnaltrexone).
• P-Src-Tyr416 (GeneTex # GTX81151) Rb: 1:1000 in 5% bovine serum albumin o/n at 4° C. • 10 µg /lane (NP40 lysates) 10% SDS PAGE • Total Src (CST # 2108S ) Rb mAb 1:1000 in 5% bovine serum albumin o/n at 4° C.
• P-Src-Tyr416 (GeneTex # GTX81151) Rb: 1:1000 in 5% bovine serum albumin 3 hours at room temperature • 10 µg /lane (NP40 lysates) 10% SDS PAGE • Total Src (CST # 2108S ) Rb mAb 1:1000 in 5% bovine serum albumin 3 hours at room temperature
• P-Src-Tyr416 (GeneTex # GTX81151) 1:2000 in 5% bovine serum albumin, o/n at 4° C. • Total Src (CST # 2108S ) 1:3000 in 5% bovine serum albumin, o/n at 4° C. • Vinculin (ProteinTech) 1:4000 in 5% milk o/n at 4° C.
• P-Src-Tyr416 (GeneTex # GTX81151) 1:2000 in 5% bovine serum albumin, o/n at 4C • Total Src (CST # 2108S ) 1:3000 in 5% bovine serum albumin, o/n at 4C

p-Src protein = experiment: p-Src inhibition by increasing lidocaine doses in human pancreatic cancer cells (Western blot); assay type: cell-based; conditions: 30 minutes of treatment, 0-100 µM tested
Protocol: as §1, with “pancreatic cancer” for “mouse KPC-105”
as §2, with “after phosphor-Src” for “after p-Src”

[2] = system: LPS-induced serum inflammatory cytokines; experiment: LPS-induced inflammation model, serum inflammatory cytokines (LEGENDplex, flow cytometry); assay type: in vivo, mouse; conditions: serum of treated mice
Protocol: C57BL/6J mice (6-8 weeks) were purchased from Charles River Laboratories (USA) and acclimatized for at least 1 week before use. All mice were housed in a pathogen-free facility. The mice received LPS for 24 hours. Following 24 hours, mice were treated either with lidocaine alone or methylnaltrexone alone or a combination of both, as shown in Table 1.
At the conclusion of the study, the blood and tissue samples were collected for further study. The serum was used to determine pro-inflammatory cytokines using the LEGENDplex™ mouse inflammation panel (BioLegend, USA) kit followed by flow cytometry. The lungs and spleen tissue samples were used for hematoxylin and eosin (H&E) staining and immunohistochemical analyses for immune cells, including macrophages and natural killer (NK) cells, B cells, T cells, and its subsets. For histopathology and immunohistochemistry (IHC), tissue samples were prepared by cutting 4-µm sections from the paraffin blocks. IHC staining was performed by methods described earlier. The images were captured using bright field microscopy (Nikon Microscope). Two independent investigators evaluated the H&E and all immunohistochemical staining. For slide scoring, each investigator assessed the tissues and gave a score of 0 (no expression) to 4+ (strong uniform expression) as described previously. The data were expressed either as the mean ± SD or mean ± SEM by using Graph Pad Prism software.
Gram-negative bacterial infections are the main cause of acute lung injury, and LPS, which is the main component of the Gram-negative bacteria cell wall, is the major stimulus for the release of inflammatory mediators. Therefore, we measured the effect of lidocaine alone, methylnaltrexone alone, or a combination of lidocaine and methylnaltrexone on LPS-induced serum inflammatory cytokines profiles. Mouse inflammatory cytokines were measured in serum of control and LPS-challenged mice treated with drugs as described in Table 1, using the LEGENDplex™ mouse inflammation panel (BioLegend, USA) kit followed by flow cytometry as per manufacturer’s specifications. […] However, serum tumor necrosis factor-alpha (TNF-α), monocyte chemoattractant protein 1 (MCP- 1), interleukin 10 (IL-10), interleukin 6 (IL-6), and interleukin 17A (IL-17A) levels were found decreased in mice challenged with LPS and treated with lidocaine and methylnaltrexone together (FIGS. 14C-G). IL-1, IL-6, IL-17A, MCP-1, and TNFα are pro- inflammatory cytokines associated with inflammatory signaling. Taken together, these findings indicate that combined treatment of lidocaine and methylnaltrexone has the potential to suppress inflammatory signaling.

[3] = Example 4, 10 µM lidocaine, different time points
[4] = Example 8, 10 µM lidocaine, 100 nM methylnaltrexone or both, different time points

CCN(CC)CC(=O)Nc1c(C)cccc1C [lidocaine, 2-diethylaminoaceto-2′,6′-xylidide]
decrease in TNF-α-induced Src phosphorylation ([1]; co-incubation with TNF-α and 10 µM lidocaine, p=0.012): 73% | decrease in Src phosphorylation at tyrosine 419 ([1]; lidocaine 1 nm-100 µM, 20 minutes, Kruskal-Wallis p=0.146): did not reach statistical significance | dose from which the level of p-Src protein is reduced (p-Src / total Src; Example 3, 30 minutes of treatment, 0-100 µM tested): ≥ 10 µM | Src phosphorylation (p-Src) (p-Src / total Src; [3]): attenuated Src phosphorylation after 15 minutes and up to 6 hours | total Src (p-Src / total Src; [3]): not affected | total Src (p-Src / total Src; Example 5, 10 µM lidocaine over 6 hours, increasing doses of methylnaltrexone, 1 hour): not affected | Src phosphorylation (p-Src) (p-Src / total Src; Example 5, 10 µM lidocaine, different time points, inconsistent banding pattern): attenuated Src phosphorylation at 30 minutes, 1 hour, 2 hours, and 6 hours | phosphorylation of Src (p-Src / total Src; [4]): attenuated phosphorylation of Src after 1 hour of exposure | total Src (p-Src / total Src; [4]): decreased total Src after 1 hours of exposure | dose from which the level of p-Src protein is reduced (p-Src protein): ≥ 10 µM | serum interferon-gamma (IFNγ) level [2]: insignificant changes | serum interleukin 1 alpha (IL-1α) level [2]: insignificant changes
